Read-outs that look alike come from different tables or passages of the source.
What was measured:
Experiment in all cases: Test A greenhouse herbicide test, pre- and postemergence
Type in all cases: in vivo
[1] = test system: barnyardgrass (Echinochloa crus-galli); details: Echinochloa crus-galli, 240 h; for pest or weed control at 125 g/ha: 125 g ai/ha; for pest or weed control at 500 g/ha: 500 g ai/ha, 0 to 100 scale
Method in brief: (§1)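 Visual injury ratings, 0 (no effect) to 100 (complete control), versus untreated plants after roughly 10 d in a greenhouse. Compounds, formulated in a surfactant-containing non-phytotoxic solvent, were sprayed on loam–sand soil after sowing (pre) or on one- to two-leaf plants 2–10 cm tall (post).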

[2] = test system: corn (Zea mays); details: Zea mays, 240 h; for Corn plant response rating (crop injury, 0 = no effect, 100 = complete kill) at 125 g/ha / plant injury at 500 g/ha: post-emergence, Postemergence; for Corn plant response rating (crop injury, 0 = no effect, 100 = complete kill) at 125 g/ha: visual rating after approx. 10 d, 0 to 100 scale (0 no effect, 100 complete control); for plant injury at 500 g/ha: 0 is no effect, 100 is complete control
Method in brief: as §1

[3] = test system: foxtail, giant (giant foxtail, Setaria faberii); details: Setaria faberi, 240 h; for pest or weed control at 125 g/ha: 125 g ai/ha; for pest or weed control at 500 g/ha: 500 g ai/ha, 0 to 100 scale
Method in brief: as §1

[4] = test system: pigweed (Amaranthus retroflexus); details: Amaranthus retroflexus, 240 h; for pest or weed control at 125 g/ha: 125 g ai/ha; for pest or weed control at 500 g/ha: 500 g ai/ha, 0 to 100 scale
Method in brief: as §1

[5] = test system: wheat (Triticum aestivum); details: Triticum aestivum, 240 h; for plant injury at 125 g/ha: 125 g ai/ha; for plant injury at 500 g/ha: 500 g ai/ha, 0 to 100 scale
Method in brief: as §1

[6] = test system: kochia (Kochia scoparia); details: Bassia scoparia, 240 h; for pest or weed control at 125 g/ha: 125 g ai/ha; for pest or weed control at 500 g/ha: 500 g ai/ha, 0 to 100 scale
Method in brief: as §1

[7] = test system: ragweed (common ragweed, Ambrosia elatior); details: Ambrosia artemisiifolia, 240 h; for pest or weed control at 125 g/ha: 125 g ai/ha; for pest or weed control at 500 g/ha: 500 g ai/ha, 0 to 100 scale
Method in brief: as §1

[8] = test system: ryegrass, Italian (Italian ryegrass, Lolium multiflorum); details: Lolium multiflorum, 240 h; for pest or weed control at 125 g/ha: 125 g ai/ha; for pest or weed control at 500 g/ha: 500 g ai/ha, 0 to 100 scale
Method in brief: as §1

[9] = post-emergence, Postemergence, visual rating after approx. 10 d, 0 to 100 scale (0 no effect, 100 complete control), read-out: Plant response rating, Barnyardgrass
[10] = post-emergence, Postemergence, 0 is no effect, 100 is complete control, read-out: Barnyardgrass plant response rating
[11] = pre-emergence, Preemergence, 0 to 100 scale where 0 is no effect and 100 is complete control, read-out: Barnyardgrass plant response rating
[12] = pre-emergence, Preemergence, 0 no effect, 100 complete control, read-out: Plant response rating, Barnyardgrass
[13] = 500 g ai/ha, 0 to 100 scale, read-out: Corn plant response rating
[14] = post-emergence, Postemergence, visual rating after approx. 10 d, 0 to 100 scale (0 no effect, 100 complete control), read-out: Plant response rating, Foxtail, Giant
[15] = post-emergence, Postemergence, 0 is no effect, 100 is complete control, read-out: Foxtail, Giant plant response rating
[16] = pre-emergence, Preemergence, 0 to 100 scale where 0 is no effect and 100 is complete control, read-out: Foxtail, Giant plant response rating
[17] = pre-emergence, Preemergence, 0 no effect, 100 complete control, read-out: Plant response rating, Foxtail, Giant
[18] = post-emergence, Postemergence, visual rating after approx. 10 d, 0 to 100 scale (0 no effect, 100 complete control), read-out: Plant response rating, Pigweed
[19] = post-emergence, Postemergence, 0 is no effect, 100 is complete control, read-out: Pigweed plant response rating
[20] = pre-emergence, Preemergence, 0 to 100 scale where 0 is no effect and 100 is complete control, read-out: Pigweed plant response rating
[21] = pre-emergence, Preemergence, 0 no effect, 100 complete control, read-out: Plant response rating, Pigweed
[22] = post-emergence, Postemergence, visual rating after approx. 10 d, 0 to 100 scale (0 no effect, 100 complete control), read-out: Plant response rating, Wheat
[23] = post-emergence, Postemergence, 0 is no effect, 100 is complete control, read-out: Wheat plant response rating
[24] = post-emergence, Postemergence, visual rating after approx. 10 d, 0 to 100 scale (0 no effect, 100 complete control), read-out: Plant response rating, Kochia
[25] = post-emergence, Postemergence, 0 is no effect, 100 is complete control, read-out: Kochia plant response rating
[26] = pre-emergence, Preemergence, 0 to 100 scale where 0 is no effect and 100 is complete control, read-out: Kochia plant response rating
[27] = pre-emergence, Preemergence, 0 no effect, 100 complete control, read-out: Plant response rating, Kochia
[28] = post-emergence, Postemergence, visual rating after approx. 10 d, 0 to 100 scale (0 no effect, 100 complete control), read-out: Plant response rating, Ragweed
[29] = post-emergence, Postemergence, 0 is no effect, 100 is complete control, read-out: Ragweed plant response rating
[30] = pre-emergence, Preemergence, 0 to 100 scale where 0 is no effect and 100 is complete control, read-out: Ragweed plant response rating
[31] = pre-emergence, Preemergence, 0 no effect, 100 complete control, read-out: Plant response rating, Ragweed
[32] = post-emergence, Postemergence, visual rating after approx. 10 d, 0 to 100 scale (0 no effect, 100 complete control), read-out: Plant response rating, Ryegrass, Italian
[33] = post-emergence, Postemergence, 0 is no effect, 100 is complete control, read-out: Ryegrass, Italian plant response rating
[34] = pre-emergence, Preemergence, 0 to 100 scale where 0 is no effect and 100 is complete control, read-out: Ryegrass, Italian plant response rating
[35] = pre-emergence, Preemergence, 0 no effect, 100 complete control, read-out: Plant response rating, Ryegrass, Italian

| SMILES | pest or weed control at 125 g/ha [1, 9] [%] | pest or weed control at 500 g/ha [1, 10] [%] | pest or weed control at 125 g/ha [1, 11] [%] | pest or weed control at 500 g/ha [1, 12] [%] | Corn plant response rating (crop injury, 0 = no effect, 100 = complete kill) at 125 g/ha ([2]; 125 g ai/ha) [%] | plant injury at 500 g/ha [2, 13] [%] | pest or weed control at 125 g/ha [3, 14] [%] | pest or weed control at 500 g/ha [3, 15] [%] | pest or weed control at 125 g/ha [3, 16] [%] | pest or weed control at 500 g/ha [3, 17] [%] | pest or weed control at 125 g/ha [4, 18] [%] | pest or weed control at 500 g/ha [4, 19] [%] | pest or weed control at 125 g/ha [4, 20] [%] | pest or weed control at 500 g/ha [4, 21] [%] | plant injury at 125 g/ha [5, 22] [%] | plant injury at 500 g/ha [5, 23] [%] | pest or weed control at 125 g/ha [6, 24] [%] | pest or weed control at 500 g/ha [6, 25] [%] | pest or weed control at 125 g/ha [6, 26] [%] | pest or weed control at 500 g/ha [6, 27] [%] | further results |
| --- | --- | --- | --- | --- | --- | --- | --- | --- | --- | --- | --- | --- | --- | --- | --- | --- | --- | --- | --- | --- | --- |
| Cc1nn(C)c(=O)c(-c2c(C)oc3cccc(C)c23)c1O [Compound 8, 4-(2,4-dimethyl-3-benzofuranyl)-5-hydroxy-2,6-dimethyl-3(2H)-pyridazinone] | 0 | 0 | 0 | 0 | 0 | 0 | 0 | 30 | 40 | 60 | 70 | 80 | 70 | 100 | 0 | 0 |  |  |  |  | plant injury at 125 g/ha ([2]; pre-emergence, Preemergence, 125 g ai/ha, 0 to 100 scale where 0 is no effect and 100 is complete control, read-out: Corn plant response rating): 0%; Corn plant response rating (crop injury, 0 = no effect, 100 = complete kill) at 500 g/ha ([2]; pre-emergence, Preemergence, 500 g ai/ha, 0 to 100 scale, 0 no effect, 100 complete control): 0%; plant injury at 125 g/ha ([5]; pre-emergence, Preemergence, 0 to 100 scale where 0 is no effect and 100 is complete control, read-out: Wheat plant response rating): 0%; plant injury at 500 g/ha ([5]; pre-emergence, Preemergence, 0 no effect, 100 complete control, read-out: Plant response rating, Wheat): 0% |
| Cc1ccc2oc(C)c(-c3c(OC(=O)C(C)(C)C)c(C)nn(C)c3=O)c2c1 [Compound 17, 5-(2,5-dimethyl-3-benzofuranyl)-1,6-dihydro-1,3-dimethyl-6-oxo-4-pyridazinyl 2,2-dimethylpropanoate] | 0 | 0 | 0 | 0 | 0 | 0 | 0 | 0 | 0 | 0 | 0 | 0 | 0 | 0 | 0 | 0 | 0 | 0 | 0 | 0 | pest or weed control at 125 g/ha [7, 28]: 0%; pest or weed control at 500 g/ha [7, 29]: 0%; pest or weed control at 125 g/ha [7, 30]: 0%; pest or weed control at 500 g/ha [7, 31]: 10%; pest or weed control at 125 g/ha [8, 32]: 50%; pest or weed control at 500 g/ha [8, 33]: 60%; pest or weed control at 125 g/ha [8, 34]: 10%; pest or weed control at 500 g/ha [8, 35]: 40% |
| Cc1cc(C)c2oc(C)c(-c3c(OC(=O)C(C)(C)C)c(C)nn(C)c3=O)c2c1 [Compound 18, 1,6-dihydro-1,3-dimethyl-6-oxo-5-(2,5,7-trimethyl-3-benzofuranyl)-4-pyridazinyl 2,2-dimethylpropanoate] | 0 | 40 | 0 | 0 | 0 | 20 | 0 | 20 | 0 | 0 | 0 | 0 | 0 | 0 | 0 | 0 | 0 | 0 | 0 | 0 | pest or weed control at 125 g/ha [7, 28]: 0%; pest or weed control at 500 g/ha [7, 29]: 0%; pest or weed control at 125 g/ha [7, 30]: 0%; pest or weed control at 500 g/ha [7, 31]: 0%; pest or weed control at 125 g/ha [8, 32]: 10%; pest or weed control at 500 g/ha [8, 33]: 50%; pest or weed control at 125 g/ha [8, 34]: 0%; pest or weed control at 500 g/ha [8, 35]: 20% |

Source: patent US10597388B2, “Pyridazinone herbicides” (FMC CORPORATION, priority 2014, dated 2020)
